Reference: ChEMBL document CHEMBL4406882, “The plant-derived chalcone Xanthoangelol targets the membrane of Gram-positive bacteria” (Bioorg Med Chem, 2019)
Calls of active or inactive are those of the source. No cut-off for these calls is given here.

Tested on: Staphylococcus aureus
Experiment: Induction of membrane integrity impairment in methicillin-resistant Staphylococcus aureus ATCC 700699 at 3.125 to 12.5 uM measured for 30 mins by DiOC2(3) probe based fluorescence assay
Type: functional, organism-based

Question: For `N#CC(C#N)=NNc1cccc(Cl)c1`, which Activity is on record?
Answer: Active
